Data on 91 compounds can be found in PubChem BioAssay AID1053172 (The Scripps Research Institute Molecular Screening Center, 2014).

Each structure is given as a SMILES string. Activity calls are given as the source filed them. How the calls were made is not given here.

This test deals with HIV-1 integrase / human LEDGF/p75 complex. Kind of test: inhibitors of HIV-1 IN-LEDGF/p75 DNA integration, dose response, biochemical, TR-FRET (AID 1053172).

On to `CC1(C)OC(=O)C(=Cc2ccc(-c3ccc(Cl)c(C(=O)O)c3)o2)C(=O)O1`, for which the IC50 is 7910 nM. In the case of `CN(C)c1ccc(O)c2c1CC1CC3[C@@H](N(C)C)C(=O)C(C(N)=O)=C(O)[C@]3(O)C(=O)C1=C2O` (stereo partly specified), the IC50 was 3740 nM. As to `Nc1c(C(=O)NCC2CCCO2)sc2nc3c(c(-c4ccco4)c12)CC/C3=C\c1ccco1` (stereo unspecified), the IC50 is 1350 nM. Under `Cc1ccc(N=C2NC(=O)/C(=C/C=C/c3ccco3)S2)cc1` stands 9140 nM; under `Cc1ccc(NC2=CC(=O)C(=O)c3ccccc32)cc1`, 8860 nM.

Take `Cc1cccc(N=C2NC(=O)/C(=C/C=C/c3ccco3)S2)c1C`: the IC50 is 2990 nM. With `O=c1c(-c2c(O)cc(O)c3c(=O)cc(-c4ccc(O)cc4)oc23)c(-c2ccc(O)cc2)oc2cc(O)cc(O)c12` the figure was 4230 nM.

Regarding `COc1ccc(/C=N/NC(=O)c2cc(O)c(O)c(O)c2)cc1Cn1cc([N+](=O)[O-])cn1`, the IC50 was 689 nM. Under `O=C1CC(=O)N(Cc2ccco2)C(=O)N1` stands 691 nM.

`CCn1c(C)nc2cc(C(=O)N/N=C/c3ccc(O)c(O)c3O)ccc21`: the IC50 was 429 nM. For `O=c1cc(-c2ccc(O)cc2)oc2cc(O)c(C3OC(CO)C(O)C(O)C3O)c(O)c12` (stereo unspecified), the IC50 was 5960 nM. As to `Cc1ccc(/C=C/C(=O)Nc2ccc([N+](=O)[O-])c(NC(=O)/C=C/c3ccc(C)o3)c2)o1`, the IC50 entry was “inactive”. On to `CC1(C)OC(C)(C)/C(=C/Nc2ccc(O)cc2)C1=O`, for which the IC50 entry was “inactive”. Turning to `O=C1C(=Cc2ccco2)CCC1=Cc1ccco1`, the IC50 was 1920 nM. Consider `O=C1/C(=C\c2ccc(O)c(O)c2)C(c2ccccc2)=NN1c1ccccc1`, for which the IC50 result was “inactive”. Take `Cc1csc(NC(=O)CSc2sc3c(O)cc(=O)[nH]c3c2C#N)n1`: the IC50 was 9730 nM. For the compound `Cc1ccc(-c2nn(-c3ccccc3)cc2/C=C2\SC(=S)N(CCCCCC(=O)O)C2=O)o1`, the IC50 entry is “inactive”.

As for `O=C(O)c1ccc(-n2cccc2/C=C2/NC(=O)N(c3ccccc3)C2=O)cc1`, the IC50 is 2850 nM. Under `O=C(O)COc1ccc2c(c1)O/C(=C\c1ccco1)C2=O` stands 1610 nM. With `O=C(Cc1csc(N2CCOCC2)n1)N/N=C/c1ccc(O)c(O)c1O` the figure was 927 nM; with `Cc1ccc(N2C(=O)NC(=O)/C(=C/c3ccoc3)C2=O)cc1`, 2000 nM; with `COCCCNC(=O)/C(C#N)=C/c1ccc(OCC(=O)O)c(OC)c1`, 5280 nM. As for `CN(C(=O)COC(=O)c1cc(-c2ccco2)nc2ccccc12)C1CCS(=O)(=O)C1` (stereo unspecified), the IC50 was 7420 nM. With `C=CCn1c(SCC(=O)c2ccc(O)c(O)c2)nnc1-c1cccnc1` the figure was 2380 nM. `O=C1NC(=Nc2ccc(O)cc2)S/C1=C\C=C\c1ccco1`: the IC50 was 4080 nM. For `O=C1C=C(O)c2c(O)cc(O)c(O)c2C1=O`, the IC50 is 742 nM. Under `C=C(C)C(=O)Nc1cccc(C2=NOC3(C2)C[C@@H](C(N)=O)N(C(=O)/C(C)=C/C)C3)c1` (stereo partly specified) stands 3250 nM; under `COc1cccc(-n2c(SCc3cc(=O)oc4cc(O)c(O)cc34)nc3ccccc3c2=O)c1`, 3810 nM; under `Oc1cccc(/C=N/NC(=S)Nc2cccnc2)c1O`, “inactive”. Under `O=c1cc(-c2ccc(O)c(O)c2)oc2cc(O)c(C3OC(CO)C(O)C(O)C3O)c(O)c12` (stereo unspecified) stands 1550 nM; under `Cn1cccc1CC(=O)NN=C/C=C\c1ccco1`, > 36500 nM (inactive); under `NS(=O)(=O)c1ccc(N/N=C/c2ccc(O)c(O)c2O)c([N+](=O)[O-])c1`, 1240 nM.

`NNc1cccc(C=Cc2ccccc2)cc1=O`: the IC50 was > 36600 nM (inactive).

For `Oc1ccc(/C=N/N=C(c2ccccc2)c2ccccc2)c(O)c1O`, the IC50 is 1080 nM. With `CC(=O)Nc1ccc2c(COC(=O)CC3Sc4ccccc4NC3=O)cc(=O)oc2c1` (stereo unspecified) the figure was > 12200 nM (inactive); with `S=c1[nH]nc(-c2ccco2)n1/N=C/C=C/c1ccco1`, “inactive”; with `CCN=c1scc(C)n1/N=C/c1ccc(O)c(O)c1O`, 5610 nM.

Take `Cc1cc(-c2csc(N)n2)c(C)n1Cc1ccco1`: the IC50 was > 36600 nM (inactive). Turning to `O=C(O)CC(C(=O)O)N1C(=O)/C(=C/C=C/c2ccco2)SC1=S` (stereo unspecified), the IC50 was 377 nM.

With `CCN(CC)c1ccc(N=C2C=CC(=O)C=C2NC(C)=O)cc1`, the IC50 is > 36600 nM (inactive). Take `COc1ccccc1OCC(=O)N/N=C/C=C/c1ccc([N+](=O)[O-])o1`: the IC50 is > 36500 nM (inactive). For `CN(CCC#N)C(=O)COC(=O)c1c2c(nc3ccccc13)/C(=C\c1ccco1)CC2`, the IC50 was 2560 nM. `CC(=O)c1ccc(NC(=O)CSc2nnc(-c3ccco3)c(-c3ccco3)n2)cc1`: the IC50 is 6380 nM.

For the compound `O=C(O)c1cccc(-n2cccc2/C=C/[N+](=O)[O-])c1`, the IC50 is 8750 nM. For the compound `CCCNC1=C(C)C(=O)C2=C(C1=O)C(COC(N)=O)[C@]1(OC)C3NC3CN21` (stereo partly specified), the IC50 entry was “inactive”. `O=c1c2cc(O)c(O)cc2oc2cc(O)c(C3OC(CO)C(O)C(O)C3O)c(O)c12` (stereo unspecified): the IC50 is 1740 nM. Turning to `O=c1cc(-c2ccc(O)cc2)oc2c(O)c(O)c(O)c(O)c12`, the IC50 was 341 nM. For `N#C/C(=C\c1cc(O)c(O)c(O)c1)C(N)=O`, the IC50 is 9600 nM. Consider `O=C1S/C(=C\C=C\c2ccco2)C(=O)N1c1ccc(O)cc1`, for which the IC50 is 9560 nM. For `O=C1NC(=Nc2ccccc2)S/C1=C\C=C\c1ccco1`, the IC50 is 4380 nM. Under `Brc1ccc(-c2nn3c(-c4ccco4)nnc3s2)o1` stands “inactive”; under `O=C(Cc1cnn(-c2ccccc2)c1)c1ccc(O)c(O)c1O`, > 36500 nM (inactive); under `O=C(O)CC(CCc1ccccc1)OC1OC(CO)C(O)C(O)C1O` (stereo unspecified), 620 nM. In the case of `O=C(N/N=C\C=C\c1ccc([N+](=O)[O-])o1)c1cccs1`, the IC50 was > 36500 nM (inactive).

`COC(=O)c1ccc(C)c(NC(=O)CSc2sc3c(O)cc(=O)[nH]c3c2C#N)c1`: the IC50 entry was “inactive”. Take `CN=c1scc(C)n1/N=C/c1ccc(O)c(O)c1O`: the IC50 was 4740 nM. Regarding `O=C(NN1C(=O)/C(=C/c2ccc(O)c(O)c2)SC1=S)c1ccccc1`, the IC50 is 1800 nM. As to `C=C1c2cccc(O)c2C(O)=C2C(=O)[C@]3(O)C(O)=C(C(N)=O)C(=O)[C@@H](N(C)C)[C@@H]3[C@@H](O)[C@H]12`, the IC50 is 2720 nM. In the case of `O=C(N/N=C/c1cccc(F)c1)c1cc(-c2ccco2)nc2ccccc12`, the IC50 was 3850 nM.

For `O=C(O)c1cc(O)c2c(c1)[C@H]([C@H]1c3cc(C(=O)O)cc(O)c3C(=O)c3c(O[C@@H]4O[C@H](CO)[C@@H](O)[C@H](O)[C@H]4O)cccc31)c1cccc(OC3O[C@H](CO)[C@@H](O)[C@H](O)[C@H]3O)c1C2=O` (stereo partly specified), the IC50 is 1050 nM.

Consider `C=CC1=C(C(=O)O)N2C(=O)[C@@H](NC(=O)/C(=N\OCC(=O)O)c3csc(N)n3)[C@H]2SC1`, for which the IC50 was 2890 nM. Under `O=C(O)c1ccc(-n2cccc2/C=C2/NC(=O)N(c3cccc(Cl)c3)C2=O)cc1` stands 4250 nM; under `O=C(O)c1ccc(-n2cccc2/C=C2/SC(=O)N(CC(=O)N3CCCC3)C2=O)cc1`, 2460 nM; under `COc1cc(/C=C(\C#N)C(=O)c2ccc(O)c(O)c2)cc(I)c1O`, 752 nM. On to `C=C(C)C(=O)Oc1ccc(N=Nc2ccc(C)cc2)ccc1=O`, for which the IC50 is 3480 nM. For the compound `Cc1c(O)cc2c(c1O)C(=O)CC(c1ccc(O)cc1)O2` (stereo unspecified), the IC50 was 9390 nM. As for `N#Cc1c(NC(=O)CSc2ncnc3sccc23)oc(-c2ccco2)c1-c1ccco1`, the IC50 result was “inactive”. On to `O=C(CCN1C(=O)/C(=C/c2ccco2)SC1=S)Nc1ccc(C(=O)O)c(O)c1`, for which the IC50 entry was “inactive”. As for `Nc1ccc2cc3ccc(N)cc3nc2c1`, the IC50 is 4460 nM.

Regarding `C=CC1=C(C(=O)O)N2C(=O)[C@@H](NC(=O)/C(=N/OCC(=O)O)c3csc(N)n3)[C@H]2SC1`, the IC50 was 287 nM. Consider `O=C(NN1C(=O)/C(=C/C=C/c2ccco2)SC1=S)c1ccncc1`, for which the IC50 was 1200 nM. With `COc1ccc(NS(=O)(=O)c2ccc3c(c2)[C@H]2C=CC[C@H]2[C@@H](c2ccc(C(=O)O)cc2)N3)cc1` the figure was 2120 nM; with `O=C(CCN1CCN(c2ccccc2)CC1)N/N=C/c1ccc(O)c(O)c1O`, 1020 nM; with `Cc1ccc(NC(=O)CN2C(=O)N/C(=C/c3ccco3)C2=O)cc1`, > 36500 nM (inactive).

Turning to `CC1CCCC(C)N1/N=C/c1ccc(O)c(O)c1` (stereo unspecified), the IC50 is 3370 nM.

`Nc1ccc2c(c1)C/C(=C/c1ccco1)C2=O`: the IC50 was > 36600 nM (inactive). Take `O=C1c2c(O)cc(O)cc2O[C@@]12c1c(cc(O)c3c1O[C@H](c1ccc(O)cc1)[C@@H](O)C3)O[C@@H]2c1ccc(O)cc1`: the IC50 result was “inactive”. As for `O=C(O)c1ccc(NC2=C/C(=N/S(=O)(=O)c3cccs3)c3ccccc3C2=O)cc1`, the IC50 is 996 nM. For `Oc1ccc(-c2cn3c(n2)SCC3)cc1O`, the IC50 was 1480 nM. In the case of `CCOc1cccc(N2C(=O)/C(=C/c3ccco3)C(=O)NC2=S)c1`, the IC50 is 1550 nM. Regarding `COc1ccc(/C=N\NC(=O)c2cc(O)c(O)c(O)c2)cc1CN1CCN(c2ccc(F)cc2)CC1`, the IC50 is > 36500 nM (inactive).

Consider `c1coc(-c2nnc(-c3ccco3)nn2)c1`, for which the IC50 is 1750 nM.

Turning to `CC1OC(OCC2OC(Oc3c(-c4ccc(O)cc4)oc4cc(O)cc(O)c4c3=O)C(O)C(O)C2O)C(O)C(O)C1O` (stereo unspecified), the IC50 is 8680 nM.

For `Oc1ccc(C=Nc2cccc3ncccc23)c(O)c1`, the IC50 was > 36500 nM (inactive). `O=C1NC(=S)NC(=O)C1=Cc1cccn1-c1ccc(O)cc1`: the IC50 was 2210 nM. Under `O=Cc1ccc2oc3nc4n(c(=O)c3c(=O)c2c1)CCCS4` stands 1810 nM; under `CSc1nc(N(CCO)CCO)c2sc3nc(-c4ccco4)c4c(c3c2n1)CCC4`, 4850 nM; under `Cc1ccc(-c2csc(NS(=O)(=O)c3cccc(F)c3)n2)o1`, “inactive”.

In the case of `O=C(CSc1nc2ccccc2o1)N/N=C/c1ccc(O)c(O)c1`, the IC50 is 1930 nM. As for `O=S(=O)(c1cc(O)ccc1O)c1cccc2c(S(=O)(=O)c3cc(O)ccc3O)cccc12`, the IC50 entry is “inactive”. Turning to `O=C(Cn1cnc([N+](=O)[O-])n1)c1ccc(O)c(O)c1`, the IC50 result was “inactive”.
